# Data: ChEMBL document CHEMBL3797106, “Potent and Selective Agonists of Sphingosine 1-Phosphate 1 (S1P1): Discovery and SAR of a Novel Isoxazole Based Series” (J Med Chem, 2016)
# How the values were obtained:
# [1] = Half life in rat at 2 mg/kg, iv; type: ADME, organism-based; settings: in vivo
# [2] = biological target: T1, Sphingosine 1-phosphate receptor 1 (Homo sapiens, UniProt P21453); assay: Agonist activity at human S1P1 receptor expressed in CHO cell membranes after 45 mins by [35S]-GTPgammaS binding assay; type: functional
# T1 sequence (P21453 whole entry, the tested form may be a part): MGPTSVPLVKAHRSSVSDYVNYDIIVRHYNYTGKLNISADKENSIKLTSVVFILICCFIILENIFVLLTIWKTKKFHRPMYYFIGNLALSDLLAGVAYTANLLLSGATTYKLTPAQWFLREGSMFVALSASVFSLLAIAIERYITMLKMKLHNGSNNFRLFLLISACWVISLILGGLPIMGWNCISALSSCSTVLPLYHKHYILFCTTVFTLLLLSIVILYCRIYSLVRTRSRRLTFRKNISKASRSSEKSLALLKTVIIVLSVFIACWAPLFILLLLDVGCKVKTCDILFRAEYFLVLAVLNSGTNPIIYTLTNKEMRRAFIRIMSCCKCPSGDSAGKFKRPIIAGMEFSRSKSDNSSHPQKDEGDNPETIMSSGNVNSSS
# [3] = biological target: T1, Sphingosine 1-phosphate receptor 1; assay: Induction of internalization of C-terminal GFP-fused human S1P1 receptor expressed in CHO […] after 50 mins; type: cell-based
# [4] = Oral bioavailability in rat at 5 mg/kg; type: ADME, organism-based; settings: in vivo
# [5] = Clearance in cynomolgus monkey at 2 mg/kg, iv; type: ADME, organism-based, Macaca fascicularis; settings: in vivo
# [6] = Plasma concentration in Lewis rat at 0.3 mg/kg, po measured at 4 hrs; type: ADME, organism-based
# [7] = Volume of distribution at steady state in dog at 1 mg/kg, iv; type: ADME, organism-based, Canis lupus familiaris; settings: in vivo, read-out: Vdss
# [8] = biological target: Cytochrome P450 2C9 (Homo sapiens, UniProt P11712); assay: Inhibition of CYP2C9 (unknown origin); type: ADME
# Sequence of Cytochrome P450 2C9 (P11712 whole entry): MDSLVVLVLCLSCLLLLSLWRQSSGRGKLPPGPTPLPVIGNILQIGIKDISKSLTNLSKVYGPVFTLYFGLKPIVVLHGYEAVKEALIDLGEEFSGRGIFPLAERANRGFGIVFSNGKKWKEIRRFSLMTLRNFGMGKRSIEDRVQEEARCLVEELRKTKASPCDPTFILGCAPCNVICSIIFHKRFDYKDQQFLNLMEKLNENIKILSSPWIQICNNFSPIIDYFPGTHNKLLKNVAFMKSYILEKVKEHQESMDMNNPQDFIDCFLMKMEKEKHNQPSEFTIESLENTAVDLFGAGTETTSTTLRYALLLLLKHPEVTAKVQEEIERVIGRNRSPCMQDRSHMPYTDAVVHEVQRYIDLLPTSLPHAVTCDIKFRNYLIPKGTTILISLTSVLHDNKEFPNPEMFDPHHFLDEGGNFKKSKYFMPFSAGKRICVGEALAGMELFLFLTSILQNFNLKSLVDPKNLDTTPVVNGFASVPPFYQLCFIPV
# [9] = Volume of distribution at steady state in cynomolgus monkey at 2 mg/kg, iv; type: ADME, organism-based, Macaca fascicularis; settings: in vivo, read-out: Vdss
# [10] = test system: Rattus norvegicus; assay: Reduction of blood lymphocyte level in Lewis rat at 0.03 mg/kg, po measured at 4 hrs by hematology analyzer relative to vehicle-treated control; type: functional; set-up: scale not given: the % may be the effect or the level left
# [11] = Plasma protein binding in mouse; type: ADME, cell-free; settings: read-out: PPB
# [12] = biological target: T1, Sphingosine 1-phosphate receptor 1; assay: Induction of internalization of C-terminal GFP-fused human S1P1 receptor expressed in CHO […] at 4.6 nM after 50 mins relative to control; type: cell-based
# [13] = test system: Mus musculus; assay: Reduction in clinical score in po dosed C57BL/6 mouse experimental autoimmune encephalomyelitis model of multiple sclerosis administered as qd for 24 days started from day of immunization measured 3 times per week of compound dosing; type: functional; settings: C57BL/6, po, 576 h
# [14] = Cmax in mouse at 10 mg/kg, po; type: ADME, organism-based; set-up: dose 10 mg/kg, route oral; settings: in vivo
# [15] = test system: Cynomolgus monkey; assay: Ratio of Cmax to Cmin in cynomolgus monkey at 5 mg/kg, po; type: ADME, organism-based, Macaca fascicularis; settings: in vivo
# [16] = Tmax in dog at 1 mg/kg, po; type: ADME, organism-based, Canis lupus familiaris; settings: in vivo
# [17] = Plasma protein binding in dog; type: ADME, cell-free, Canis lupus familiaris; settings: read-out: PPB
# [18] = test system: Plasma; assay: Ratio drug level in Lewis rat plasma at 0.3 mg/kg, po at 4 hrs to drug level in Lewis rat plasma at 0.3 mg/kg, po at 24 hrs; type: ADME, organism-based; settings: in vivo
# [19] = Mean residence time in mouse at 2 mg/kg, iv; type: ADME, organism-based; settings: in vivo
# [20] = test system: Rattus norvegicus; assay: Clearance in rat at 2 mg/kg, iv relative to hepatic blood flow; type: ADME, organism-based; settings: in vivo
# [21] = test system: Rattus norvegicus; assay: Reduction of blood lymphocyte level in Lewis rat at 1 mg/kg, po measured at 24 hrs by hematology analyzer relative to vehicle-treated control; type: functional; set-up: scale not given: the % may be the effect or the level left
# [22] = test system: Mus musculus; assay: Ratio of Cmax to Cmin in mouse at 10 mg/kg, po; type: ADME, organism-based; settings: in vivo
# [23] = test system: Rattus norvegicus; assay: Antiarthritic activity in complete Freund's adjuvant-induced Lewis rat arthritis model assessed as suppression of paw swelling at 0.1 mg/kg, po qd for 21 days started from day of immunization measured 3 times per week of compound dosing by water displacement plethysmometry relative to control; type: functional
# [24] = Half life in dog at 1 mg/kg, iv; type: ADME, organism-based, Canis lupus familiaris; settings: in vivo
# [25] = Oral bioavailability in cynomolgus monkey at 5 mg/kg; type: ADME, organism-based, Macaca fascicularis; settings: in vivo
# [26] = Cmax in dog at 1 mg/kg, po; type: ADME, organism-based, Canis lupus familiaris; set-up: dose 1 mg/kg, route oral; settings: in vivo
# [27] = Mean residence time in rat at 2 mg/kg, iv; type: ADME, organism-based; settings: in vivo
# [28] = biological target: Cytochrome P450 2C19 (Homo sapiens, UniProt P33261); assay: Inhibition of CYP2C19 (unknown origin); type: ADME
# Sequence of Cytochrome P450 2C19 (P33261 whole entry): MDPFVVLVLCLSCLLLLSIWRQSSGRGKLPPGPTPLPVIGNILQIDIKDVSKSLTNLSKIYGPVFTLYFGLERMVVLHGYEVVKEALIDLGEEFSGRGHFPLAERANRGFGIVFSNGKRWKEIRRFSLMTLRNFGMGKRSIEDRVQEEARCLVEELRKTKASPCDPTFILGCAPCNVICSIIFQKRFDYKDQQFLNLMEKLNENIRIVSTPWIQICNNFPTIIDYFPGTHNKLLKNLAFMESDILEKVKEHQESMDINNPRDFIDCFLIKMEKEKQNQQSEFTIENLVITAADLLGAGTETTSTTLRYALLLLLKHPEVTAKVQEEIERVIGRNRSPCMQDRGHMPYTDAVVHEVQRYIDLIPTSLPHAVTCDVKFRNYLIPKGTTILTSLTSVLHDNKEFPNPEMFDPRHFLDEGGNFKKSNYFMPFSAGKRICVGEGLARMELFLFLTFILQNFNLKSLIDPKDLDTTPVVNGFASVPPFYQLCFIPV
# [29] = Half life in mouse at 2 mg/kg, iv; type: ADME, organism-based; settings: in vivo
# [30] = biological target: Sphingosine 1-phosphate receptor 3 (Homo sapiens, UniProt Q99500); assay: Agonist activity at human S1P3 receptor expressed in EDG3-Ga15-bla HEK293T cell membranes after 45 mins by [35S]-GTPgammaS binding assay; type: functional, HEK-293T
# Sequence of Sphingosine 1-phosphate receptor 3 (Q99500 whole entry): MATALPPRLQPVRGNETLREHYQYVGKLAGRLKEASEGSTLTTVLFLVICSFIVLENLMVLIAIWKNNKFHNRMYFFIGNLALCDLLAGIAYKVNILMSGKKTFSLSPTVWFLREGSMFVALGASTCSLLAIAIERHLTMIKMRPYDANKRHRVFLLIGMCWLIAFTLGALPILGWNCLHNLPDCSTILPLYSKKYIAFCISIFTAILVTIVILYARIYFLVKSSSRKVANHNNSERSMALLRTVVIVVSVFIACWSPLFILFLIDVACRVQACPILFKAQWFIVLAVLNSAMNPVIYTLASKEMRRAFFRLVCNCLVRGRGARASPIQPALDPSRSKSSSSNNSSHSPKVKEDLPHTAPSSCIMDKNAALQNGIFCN
# [31] = Plasma concentration in Lewis rat at 0.03 mg/kg, po measured at 4 hrs; type: ADME, organism-based
# [32] = test system: Rattus norvegicus; assay: Reduction of blood lymphocyte level in Lewis rat at 0.03 mg/kg, po measured at 24 hrs by hematology analyzer relative to vehicle-treated control; type: functional; set-up: scale not given: the % may be the effect or the level left
# [33] = test system: Mus musculus; assay: Clearance in mouse at 2 mg/kg, iv relative to hepatic blood flow; type: ADME, organism-based; settings: in vivo
# [34] = test system: Mus musculus; assay: Inhibition of inflammation in spinal cord of po dosed C57BL/6 mouse experimental autoimmune encephalomyelitis model of multiple sclerosis administered as qd for 24 days started from day of immunization; type: functional, organism-based
# [35] = Mean residence time in dog at 1 mg/kg, iv; type: ADME, organism-based, Canis lupus familiaris; settings: in vivo
# [36] = test system: Plasma; assay: Ratio drug level in Lewis rat plasma at 1 mg/kg, po at 4 hrs to drug level in Lewis rat plasma at 1 mg/kg, po at 24 hrs; type: ADME, organism-based; settings: in vivo
# [37] = Cmax in cynomolgus monkey at 5 mg/kg, po; type: ADME, organism-based, Macaca fascicularis; set-up: dose 5 mg/kg, route oral; settings: in vivo
# [38] = Permeability across apical to basolateral side in human Caco2 cells; type: ADME, cell-based; settings: Caco-2, read-out: permeability
# [39] = test system: Mus musculus; assay: Induction of delay in disease onset in po dosed C57BL/6 mouse experimental autoimmune encephalomyelitis model of multiple sclerosis administered as qd for 24 days started from day of immunization measured 3 times per week of compound dosing; type: functional, organism-based
# [40] = AUC in cynomolgus monkey at 5 mg/kg, po; type: ADME, organism-based, Macaca fascicularis; settings: in vivo
# [41] = test system: Plasma; assay: Ratio drug level in Lewis rat plasma at 0.03 mg/kg, po at 4 hrs to drug level in Lewis rat plasma at 0.03 mg/kg, po at 24 hrs; type: ADME, organism-based; settings: in vivo
# [42] = test system: Rattus norvegicus; assay: Reduction of blood lymphocyte level in Lewis rat at 0.3 mg/kg, po measured at 24 hrs by hematology analyzer relative to vehicle-treated control; type: functional; set-up: scale not given: the % may be the effect or the level left
# [43] = biological target: Cytochrome P450 3A4 (Homo sapiens, UniProt P08684); assay: Inhibition of CYP3A4 (unknown origin); type: ADME
# Sequence of Cytochrome P450 3A4 (P08684 whole entry): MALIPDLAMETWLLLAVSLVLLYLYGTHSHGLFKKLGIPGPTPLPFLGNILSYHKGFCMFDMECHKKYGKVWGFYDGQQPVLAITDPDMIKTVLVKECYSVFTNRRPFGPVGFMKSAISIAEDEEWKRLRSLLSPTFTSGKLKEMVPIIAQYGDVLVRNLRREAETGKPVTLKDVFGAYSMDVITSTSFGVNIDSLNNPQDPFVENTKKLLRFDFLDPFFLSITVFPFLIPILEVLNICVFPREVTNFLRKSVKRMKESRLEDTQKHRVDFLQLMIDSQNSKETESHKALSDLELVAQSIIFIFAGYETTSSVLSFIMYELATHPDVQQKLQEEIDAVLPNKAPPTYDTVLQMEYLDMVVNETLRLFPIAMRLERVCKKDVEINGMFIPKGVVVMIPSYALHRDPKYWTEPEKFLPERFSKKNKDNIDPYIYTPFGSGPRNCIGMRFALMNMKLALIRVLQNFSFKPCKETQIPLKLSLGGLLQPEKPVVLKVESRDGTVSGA
# [44] = Oral bioavailability in dog at 1 mg/kg; type: ADME, organism-based, Canis lupus familiaris; settings: in vivo
# [45] = Plasma protein binding in human; type: ADME, cell-free; settings: read-out: PPB (converted)
# [46] = AUC in rat at 5 mg/kg, po; type: ADME, organism-based; settings: in vivo
# [47] = Tmax in mouse at 10 mg/kg, po; type: ADME, organism-based; settings: in vivo
# [48] = Volume of distribution at steady state in mouse at 2 mg/kg, iv; type: ADME, organism-based; settings: in vivo, read-out: Vdss
# [49] = Plasma concentration in Lewis rat at 0.03 mg/kg, po measured at 24 hrs; type: ADME, organism-based
# [50] = test system: Canis familiaris; assay: Clearance in dog at 1 mg/kg, iv relative to hepatic blood flow; type: ADME, organism-based, Canis lupus familiaris, Liver; settings: in vivo
# [51] = biological target: T1, Sphingosine 1-phosphate receptor 1; assay: Induction of internalization of C-terminal GFP-fused human S1P1 receptor expressed in CHO […] assessed as remaining receptor level in cell membrane at 4.6 nM preincubated for 50 mins followed by compound washout measured at 4 hrs relative to control; type: cell-based
# [52] = test system: Mus musculus; assay: Inhibition of demyelination in spinal cord of po dosed C57BL/6 mouse experimental autoimmune encephalomyelitis model of multiple sclerosis administered as qd for 24 days started from day of immunization; type: functional, organism-based
# [53] = Plasma concentration in Lewis rat at 0.3 mg/kg, po measured at 24 hrs; type: ADME, organism-based
# [54] = test system: Rattus norvegicus; assay: Ratio of Cmax to Cmin in rat at 5 mg/kg, po; type: ADME, organism-based; settings: in vivo
structure (smiles),measurement,setting,value
O=C(O)C1CN(Cc2ccc(-c3noc(-c4onc(-c5ccccc5)c4C(F)(F)F)n3)cc2)C1,half-life,[1],10 h
same,EC50,[2],0.00047 µM
same,EC50,[3],0.00027 µM
same,bioavailability,[4],52%
same,clearance,[5],0.312 L/h/kg
same,concentration at 4 h,[6],0.18 µM
same,Vd,[7],0.7 L/kg
same,IC50,[8],> 40 µM
same,Vd,[9],0.6 L/kg
same,Activity,[10],75%
same,fraction unbound,[11],0.001
same,Activity,[12],> 90%
same,ED50,[13],0.02 mg/kg
same,Cmax,[14],31 µM
same,Ratio,[15],37
same,Tmax,[16],8.9 h
same,fraction unbound,[17],0.01
same,Ratio,[18],7
same,MRT,[19],14 h
same,CL,[20],2.4%
same,Activity,[21],91%
same,Ratio,[22],2
same,Activity,[23],>50%
same,half-life,[24],7.4 h
same,bioavailability,[25],70%
same,Cmax,[26],1.3 µM
same,MRT,[27],14 h
same,IC50,[28],> 40 µM
same,half-life,[29],9.8 h
same,EC50,[30],1.6 µM
same,concentration at 4 h,[31],0.02 µM
same,Activity,[32],45%
same,CL,[33],0.3%
same,inhibition,[34],Dose-dependent effect
same,MRT,[35],8.9 h
same,Ratio,[36],3
same,Cmax,[37],4 µM
same,Papp A→B,[38],104 nm/s
same,Activity,[39],Dose-dependent effect
same,AUC,[40],25 µM·h
same,Ratio,[41],5
same,Activity,[42],73%
same,IC50,[43],> 40 µM
same,bioavailability,[44],45%
same,fraction unbound,[45],0.003
same,AUC,[46],44 µM·h
same,Tmax,[47],3 h
same,Vd,[48],0.2 L/kg
same,concentration at 24 h,[49],0.004 µM
same,CL,[50],5.2%
same,Activity,[51],20%
same,inhibition,[52],Dose-dependent effect
same,concentration at 24 h,[53],0.025 µM
same,Ratio,[54],6
